From patent publication US20110213335A1, “HOLLOW MICRONEEDLE ARRAY AND METHOD” (priority 2008, published 2011)
Structures can show the parent of a compound that is named as a salt.

Legend:
[1] = oral administration; cited from earlier work
[2] = Naloxone infusion by hollow microneedle array with resulting PK profile (serum naloxone by LCMSMS); conditions: female, pig, other: intradermal infusion by hollow microneedle device

For `C=CCN1CC[C@]23c4c5ccc(O)c4O[C@H]2C(=O)CC[C@@]3(O)[C@H]1C5` [naloxone, naloxone hydrochloride], the “bioavailability when administered orally” value [1] is listed as “about 2%” and the bioavailability [2] is listed as 107%.
